In patent publication US7429482B2, “Screening tools for discovery of novel anabolic agents” (United States of America as represented by the Department …, priority 2005, dated 2008):

Experiments:
GADD45 [1] = assay: Acute denervation: GADD45 mRNA in EDL and soleus (qPCR); type: in vivo, rat; conditions: significant
Experimental: Male Wistar rats weighing 250 gm (Taconic Farms, Germantown, N.Y.) were provided food and water ad libitum and were housed in a temperature and humidity controlled environment providing a 12:12 hour day-night cycle. For surgical procedures, animals were anesthetized with ketamine/xylazine. The left sciatic nerve was exposed by blunt dissection, and a 1 to 2 mm piece of this nerve was excised just below the level of the femoral head. A sham surgery was performed on the right hind limb in which the sciatic nerve was exposed but was not transected. Model 2002 Alzet pumps were implanted subcutaneously on the back. […] A pellet containing 15 mg of testosterone (Innovative Research of America, Sarasota, Fla.) administered as a continuous infusion (5 mg/wk), or a pellet containing placebo, was inserted into a subcutaneous pouch. […]
Total RNA was extracted from skeletal muscle (20 mg) by homogenization in guanidine thiocyanate using a Polytron followed by extraction using phenol-chloroform (Chomczynski and Sacchi, Anal Biochem 162: 156-159, 1987). […] Total RNA was then eluted and quantified by absorbance at 260 nm. […] Levels of gene expression in the denervated muscle were expressed as fold induction relative to muscle from the sham-denervated leg of animals administered vehicle. […] Fold-induction was determined using the 2^−ΔΔCt method, using expression of 18S RNA as the normalization control. […]

GADD45 [2] = assay: Chronic denervation: GADD45 mRNA in gastrocnemius (qPCR); type: in vivo, rat
Experimental: Male Wistar rats weighing 200-250 gm (Taconic Farms, Germantown, N.Y.) were provided food and water ad libitum and were housed in a temperature and humidity controlled environment providing a 12:12 hour day-night cycle. For surgical procedures, animals were anesthetized with ketamine/xylazine. The left sciatic nerve was exposed by blunt dissection, and a 1 to 2 mm piece of this nerve was excised just below the level of the femoral head. A sham surgery was performed on the right hind limb in which the sciatic nerve was exposed but was not transected. Twenty eight days later, animals were anesthetized, and Alzet pumps were implanted subcutaneously on the back. […] Testosterone levels after replacement were approximately 15 nM, a high-normal range for rats of this age. Animals were sacrificed 3, 7 or 28 days after implantation of the miniosmotic pumps by inhalation of carbon dioxide. Gastrocnemius muscles were excised and weighed, then flash frozen on dry ice and stored at −80° C.
Total RNA was extracted from skeletal muscle (20 mg) by homogenization in guanidine thiocyanate using a Polytron followed by extraction of total RNA with phenol-chloroform as described by (Chomczynski and Sacchi, Anal Biochem 162: 156-159, 1987). Total RNA was further enriched using RNAeasy minicolumns (Qiagen, Valencia, Calif.). This procedure included digestion of contaminating DNA on the column with RNAse-free DNAse (Qiagen). Total RNA was eluted and quantified by absorbance at 260 nm. One μg of total RNA was used to prepare a cDNA library by reverse transcription (High Capacity cDNA Archive Kit, Applied Biosystems). Libraries were diluted 25-fold with water. Real time PCR was performed Taqman 2×PCR buffer (Applied Biosystems) using an Applied Biosystems 7500 thermocycler. Levels of gene expression in the denervated muscle were expressed as fold induction relative to muscle from the sham-denervated leg of animals administered vehicle. […] Fold-induction was determined using the 2^−ΔΔCt method, using expression of 18S RNA as the normalization control. […]

For `C[C@]12CC[C@H]3[C@@H](CCC4=CC(=O)CC[C@@H]43)[C@@H]1CC[C@@H]2O` [nandrolone], the “reduction in GADD45 expression” value (GADD45 [1]; denervated EDL) was 21%, the “decrease in GADD45 expression” value (GADD45 [1]; denervated soleus) was 40% and the GADD45 expression (GADD45 [2]; denervated muscle, after 3 and 7-days, not significant) was “tended to reduce”. For the same compound, the “effect on GADD45 expression” value (GADD45 [2]; denervated muscle, after 28-days infusion) was “lost” and the GADD45 expression (GADD45 [2]; sham-denervated muscle) was “no appreciable effect”.
